# Experimental data taken from a melting point compilation (Tetko et al.; mined from patent text by program, amines drawn as free bases though some values may be those of a salt).
row,Structure (SMILES),melting point
1,NS(=O)(=O)c1ccc(CCO)s1,70 to 72 °C
2,CN1CCC(Nc2ccccc2C(=O)c2ccccc2Cl)CC1,128 to 129 °C
3,Cc1ccc(-c2nc(CCl)c(C)o2)cc1,91 to 93 °C
4,CC12CCC3C(CC=C4CC(O[Si](C)(C)C)CCC43C)C1CCC2=O (stereo unspecified),173 to 174 °C
5,Cc1cccc(C)c1-n1cnc(OC(C)C(=O)O)n1 (stereo unspecified),178 to 180 °C
6,COc1c(C2CCN(CCCCNC(=O)c3ccc(-c4ccc(Cl)cc4)cn3)CC2)ccc2c1CCCC2,103 to 105 °C
7,N#Cc1ccc(C=NNS(=O)(=O)c2ccccc2)cc1,209 to 213 °C
8,CN(C(=O)COc1cc(-c2ccccc2)nc2ccccc12)C(C)(C)C,90 °C
9,CCC(OC1OC(COC(C)=O)C(OC(C)=O)C(OC(C)=O)C1OC(C)=O)C(=O)O (stereo unspecified),98 to 100 °C
10,COc1cc(-n2nc(C(F)(F)F)cc2-c2ccc(S(C)(=O)=O)cc2)ccc1Cl,157 to 158 °C
11,CCOc1c(OC)c(OC)cc(C(=O)OC)c1-c1c(C(=O)OC)cc(OC)c2c1OCO2,93 to 94 °C
12,NS(=O)(=O)c1cc2ccc(OCC3CO3)cc2s1 (stereo unspecified),148 to 149 °C
13,O=C(NC1(Cc2ccccc2)C=CCC1)C(Cl)(Cl)Cl (stereo unspecified),127 to 128 °C
14,CC(C)(OCc1cc2cc(C(F)(F)F)ccc2n1S(=O)(=O)c1ccc2ncsc2c1)C(=O)O,98 to 100 °C
15,CC(=O)OCc1cccc(NC(=O)c2nnn(Cc3ccc(Cl)c(Cl)c3)c2C)c1,> 70 °C
16,COc1ccc2c(=O)c(-c3ccccc3)c(SCc3cccnc3)oc2c1,152 °C
17,CC(C)(C)c1ccc(NC(=O)c2cccc3cc(Oc4cc(CO)ncn4)ccc23)cc1,202 to 203 °C
18,Cn1cc(-c2cccc(Cl)c2)c(=O)o1,131 °C
19,COc1ccc(-c2ncnnc2-c2ccc(OC)cc2)cc1,118 to 120 °C
20,CC1C(=O)C2CCCCC2N2CCc3ccccc3C12 (stereo unspecified),144 to 148 °C
21,CC(=O)Nc1c(C(=O)c2ccoc2)[nH]c2cc(Cl)ccc12,217 to 219 °C
22,CN1C(=O)[C@H](NC(=O)c2cc3cc(Cl)ccc3[nH]2)N=C(c2ccccc2)c2ccccc21,160 to 164 °C
23,Cn1c(-c2ccc(-n3cnc4ccccc43)cc2)cnc1[C@H](Cc1ccccn1)N(C=O)c1cc2ccccc2o1,152 to 155 °C
24,CCN(CC)C(=O)c1ccc(C)c(-c2nc(NCCNC(C)C)nc3c2CNC(=O)N3c2c(F)cccc2F)c1,89 to 91 °C

row,Structure (SMILES),melting point
1,CCCCCc1cc(O)c(C2=C(CO)CCC(C)C2)c(O)c1 (stereo unspecified),109 to 111 °C
2,CC1(C)CCCC(Cl)(Cl)C(=O)N1,148 to 155 °C
3,CS(=O)(=O)OCCCc1ccc(OCc2coc(/C=C/c3ccccc3)n2)cc1,111 to 112 °C
4,COc1ccc(C2=NC(NC(=O)CCc3ccc(Cl)cc3Cl)C(=O)N(C)c3ccccc32)cc1 (stereo unspecified),188 to 189 °C
5,CC1(C)NC(=O)N(c2cc(C#N)c(C#N)c(C(F)(F)F)c2)C1=O,159 to 160 °C
6,COc1ccc(Cn2cnc(=O)c3[nH]c(C(C)C)nc32)cc1OC1CCCC1,243 to 244 °C
7,O=C(O)c1nn(-c2ccc(Cl)cc2)c2c1CCCC2,218 °C
8,CC(C)(Cn1c(CO)nc2c(N)nc3ccccc3c21)C(N)=O,201 to 203 °C
9,CCOC(=O)c1sc(-n2ccc(OCC3CC3)cc2=O)nc1C,180 to 183 °C
10,COc1ccc2ccc(N3C(=O)c4ccccc4C3OC(=O)CCC(C)C)nc2n1 (stereo unspecified),133 °C
11,COc1cccc2c1CN(Nc1ccncc1)C2,144 to 146 °C
12,CCC(Oc1c(Cl)cccc1Cl)C(=O)OC1CC(O)C=C2C=CC(C)C(CCC3CC(O)CC(=O)O3)C21 (mixture of isomers),107 to 109 °C
13,O=S(=O)(c1nc[nH]n1)C(F)(F)Br,176 to 177 °C
14,COC(=O)CC1COc2ccc(N)cc2C1 (stereo unspecified),104 to 106 °C
15,CC(=O)NCC1CC1c1c(C2CC2)ccc2nn(C)cc12 (stereo unspecified),102 to 103 °C
16,CC1(C)COC(=O)N1c1nc(-c2ccc([N+](=O)[O-])cc2)cs1,176 to 179 °C
17,Cc1cc(C(=O)N(C)CCO)ncc1C(c1cc(F)ccc1F)S(=O)(=O)c1ccc(F)cc1 (stereo unspecified),123 to 125 °C
18,OCc1ccc(-c2cccc(-c3cn([C@H]4CN5CCC4CC5)nn3)c2)cc1,214 °C
19,Nc1ccc(C2=NNC(=O)Cc3cc4c(cc32)OCO4)cc1Cl,256 to 258 °C
20,COC(=O)c1ccc2c(c1)C=CC(=O)CO2,89 to 93 °C
21,C=CC(=O)NCCCCOc1ccccc1,46 to 47 °C
22,Nc1cc(F)ccc1NC(c1ccccc1)c1ccccc1,120 °C
23,Clc1cc2ccccc2c(N2CCSCC2)n1,133 °C
24,O=S1(=O)CCC(c2cc(F)ccc2F)(S(=O)(=O)c2ccc(Cl)cc2)CC1,204 to 206 °C

# The remaining lines, values ahead:
row,melting point,Structure (SMILES)
1,181 to 186 °C,COc1ccc(Nc2ccc(Nc3ncnc4ccsc34)cc2)cc1
2,166 to 167 °C,CCc1nn(Cc2ccccn2)c2c(=O)[nH]c(-c3cc(S(C)(=O)=O)ccc3OCCOC)nc12
3,148 to 149 °C,CC1(C)NC(=O)N(c2ccc(Cl)c(C(F)(F)F)c2)C1=N
4,179 °C,O=c1[nH]c2cc(Cl)ccc2c(NCc2ccccc2)c1-c1ccccc1
5,43 to 45 °C,Fc1ccc(C(=Cc2ccccc2)C(F)(F)F)cc1
6,97 to 98 °C,CCOC(=O)c1c(C(F)(F)F)nc(C(F)(F)Cl)c(C(=O)OC)c1NN(C)C
7,87 to 88 °C,OCc1c(Cl)cncc1Cl
8,72 to 75 °C,Cn1c(C(F)(F)F)cc(=O)n(-c2ccc3snc(C4OCC(CS(C)=O)O4)c3c2)c1=O (stereo unspecified)
9,> 300 °C,NCCc1c2ccccc2n2c1[nH]c(=O)c1ccccc12
10,200 to 201 °C,CN(c1cccc2cc(-c3nc(CCC(N)=O)cs3)[nH]c12)S(=O)(=O)c1cccs1
11,63 to 66 °C,CC(C)(C)OC(=O)Nc1ccc(-c2ccccc2F)cc1NC(=O)CC(=O)c1sccc1C#N
12,193 to 196 °C,CC(C)(C)NC(=O)NC(Cc1ccccc1)C(O)C(O)C(Cc1ccccc1)NC(=O)NC(C)(C)C (stereo unspecified)
13,63 to 68 °C,CC1(C)CC(c2cccc(C(F)(F)F)c2)c2ccc(O)cc2O1 (stereo unspecified)
14,217 to 218 °C,CN(c1cccc2cc(-c3ncc(CCC(=O)NS(C)(=O)=O)s3)[nH]c12)S(=O)(=O)c1cccs1
15,68 °C,CC12CCC(C(=Cc3ccc(OCCO)cc3)C1=O)C2(C)C (stereo unspecified)
16,111 to 114 °C,O=[N+]([O-])c1cc(Cl)c(CO)c(Cl)c1
17,116 to 118 °C,CN(CCCCOCC(=O)O)c1cnc(-c2ccc(F)cc2)c(-c2ccc(F)cc2)n1
18,143 to 145 °C,O=C1C(=O)c2ccccc2C2=C1SCC1(CCN(CC(O)COCc3ccco3)CC1)O2 (stereo unspecified)
19,120 to 123 °C,Cc1nn(-c2cc(Oc3ccc([N+](=O)[O-])cn3)c(Cl)cc2F)c(=O)n1C(F)F
20,176 to 180 °C,CC(C)c1nc(N)nc(-c2ccc(F)c3ccccc23)c1Br
21,117 to 118 °C,C#Cc1cnc2c(c1)C(=O)N(C)c1cccnc1N2CC
22,218 °C,NC(=O)C(c1ccccc1)N1C(=O)c2ccccc2C1=O (stereo unspecified)
23,254 to 256 °C,CC(C)n1nc(-c2c(-c3ccccc3)nc(N)nc2N2CCNCC2)ccc1=O
